Measured values as given in US12600696B2 (XENIOPRO GMBH, priority 2017, dated 2026).

Assays:
Assay type in all cases: cell-based
[1] = tested on: HPEKp cells (human epidermal keratinocyte progenitors, pooled); experiment: alamarBlue proliferation assay with HPEKp cells; details: 120 h, relative to DMSO basis level 1.0, read-out: weighted arithmetic mean (AVEw) of normalized fluorescence intensity, activity range
Description: (§1) The antiproliferative activities of compounds falling under formula I, formula II, formula III, formula IV and formula V were investigated on cells or cell lines originating from a disorder of the myeloid cell compartment, the neuroendocrine system, the cervix, and the mucosal epithelium, as well as from the skin epithelium. To this end, HL-60 cells, TT cells, HeLa cells, CAL-27 cells and human primary epidermal keratinocytes (HPEK) were seeded into 96-well plates suitable for fluorescence assays (CORNING #3598) at following initial cell numbers: 1000 cells per well for HL-60; 9000 cells per well for TT; 2000 cells per well for HeLa, 2000 cells per well for CAL-27, 2000 cells per well for HPEK. The cells were treated with compounds at indicated final concentrations (diluted from the 1000× stock-solutions in DMSO to a final DMSO concentration of 0.1% v/v) or with the empty carrier DMSO at 0.1% v/v as control for 5 days. At day 5 after starting the treatments the cells were subjected to the alamarBlue® Proliferation Assay (Bio-Rad Serotec GmbH, BUF012B) according to the protocol of the manufacturer. The readout was taken with a multi-well plate-reader in the fluorescence mode with applying a filter for excitation at 560 nm (band width 10 nm) and for emission at 590 nm (band width 10 nm). Resveratrol (RES) treatment was included as control for growth inhibition.
(§2) The assays were performed in duplicate or more replicates of independent single experiments each containing a six-fold replicate for every condition. For every individual plate, the measured fluorescence intensity values of the conditions with compound treatment were normalized against the corresponding equally weighted arithmetic mean of the fluorescence intensity values of the six DMSO treated control wells in order to obtain the relative values to a baseline level of 1.0. The statistical calculations were performed in analogy to the luciferase assay as described above. To this end, two independent outlier analyses were performed according to the methods by Peirce and Chauvenet (Ross, Journal of Engineering Technology 2003, 1-12). Outliers confirmed by at least one of the methods were excluded from the calculations but not more than one value out of six per compound within a single experiment. The weighted arithmetic mean AVEw for each compound was calculated from the normalized values over all independent replicates of the single experiments comprising the six replicates each. The corresponding standard deviation for the weighted arithmetic mean was calculated according to the method described by Bronstein et al. (Bronstein, Semendjajew, Musiol, Mühlig, Taschenbuch der Mathematik, 5th edition 2001 (German), publisher: Verlag Harri Deutsch, Frankfurt am Main and Thun) and was combined with the Gauß′ error propagation associated with the performed calculation for the normalization. The resulting standard deviation is herein referred to as “combined standard deviation”.
HPEKp cells were cultivated according to the protocol of the provider in CnT-Prime epithelial culture medium (CELLnTEC, #CnT-PR, a fully defined, low calcium formulation, completely free of animal or human-derived components) without addition of further components.
(§3) A compound is considered as a growth inhibitor of HPEKp cells, if—at a reference concentration of 10 μM—the weighted arithmetic mean of the normalized fluorescence intensity values after addition of the corresponding combined standard deviation amounts to 0.9 or lower, in particular to 0.8 or lower, 0.7 or lower, 0.6 or lower, 0.4 or lower, and 0.2 or lower, relative to the overall basis level of 1.0. The overall basis level was calculated as the weighted arithmetic mean of all normalized values from the DMSO control measurements in analogy to the calculations performed for the test-compounds. The corresponding combined standard deviation for the DMSO values amounts to less than 1·10^−2.

[2] = tested on: Notch signaling (hNotch1ΔE, human Notch1 receptor) in HeLa cells; experiment: Notch reporter assay (luciferase luminescence readout in transfected HeLa cells); details: Homo sapiens, 20 hours, relative to DMSO baseline level of 1.0, read-out: AVEw, weighted arithmetic mean of double-normalized Notch-reporter luciferase luminescence values (Activity Range)
Procedure, shortened: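 HeLa cells were transiently transfected for 24 h with membrane-tethered constitutively active hNotch1ΔE, a CSL-promoter Firefly luciferase reporter and constitutive SV40-Renilla luciferase. Compounds were then applied at 10 μM (0.1% DMSO) for 20 h. Firefly/Renilla dual-luciferase ratios were normalized to DMSO control (baseline 1.0), outliers were excluded, and replicate values were averaged across ≥3 independent experiments.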

[3] = tested on: CAL-27 cells (human tongue squamous cell carcinoma cells); experiment: alamarBlue proliferation assay with CAL-27 cells; details: Homo sapiens, 120 h, 20 μM, 5 days, relative to DMSO baseline level of 1.0, read-out: AVEw, weighted arithmetic mean of normalized fluorescence intensity values (Activity Range), CAL-27 proliferation
Description: as §1, §2
CAL-27 cells were cultivated according to the protocol of the provider (but at 5% instead of 10% CO2) in DMEM medium (Fisherscientific, #11584456) containing 10% fetal bovine serum (Fisherscientific, #15517589).
as §3, with “of CAL-27” for “of HPEKp”, “of 20” for “of 10”

[4] = tested on: HL-60 cells (human acute myeloid leukemia cells); experiment: alamarBlue proliferation assay with HL-60 cells; details: 120 h, 5 days, relative to DMSO baseline level of 1.0, read-out: AVEw, weighted arithmetic mean of normalized fluorescence intensity values (Activity Range), HL-60 proliferation
Procedure, shortened: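 HL-60 cells (1000/well, RPMI 1640 + 10% FBS) exposed to compound in 0.1% DMSO for 5 days, then alamarBlue fluorescence read (ex 560/em 590 nm). Signals normalized to six DMSO wells per plate (baseline 1.0); outliers removed by Peirce/Chauvenet; weighted mean with combined SD; inhibitor criterion judged at 20 μM reference concentration.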

**Q.** With COC(=O)c1ccc(Oc2ccc(C3C[C@@H]4CC[C@H]3C4)cc2)nc1 (stereo partly drawn) [Compound 112, methyl 6-(4-((1S,4R)-bicyclo[2.2.1]heptan-2-yl)phenoxy)nicotinate] as the molecule, how does the activity at 10 µM [1] read?
**A.** 40 to 60%

**Q.** With CCCc1ccc(Oc2ccc(C(N)=O)cc2)cc1 [Compound 140, 4-(4-propylphenoxy)benzamide] as the molecule, how does the activity at 10 µM [1] read?
**A.** 80 to 90%

**Q.** CCCCCc1ccc(Oc2ccc(C(=O)NO)cc2)cc1 [Compound 168, N-hydroxy-4-(4-pentylphenoxy)benzamide] was tested. Which fold induction at 10 µM [2] did it give?
**A.** 1.3 to 1.4

**Q.** And the activity at 20 µM [3]?
**A.** 0 to 20%

**Q.** What about the activity at 20 µM [4] of the same molecule?
**A.** 0 to 20%

**Q.** How did the fold induction at 10 µM [2] turn out when CC(C)c1ccc(Oc2ccc(C(=O)NO)cc2)cc1 [Compound 170, N-hydroxy-4-(4-isopropylphenoxy)benzamide] was run?
**A.** 1.1 to 1.2

**Q.** And the activity at 20 µM [3]?
**A.** 20 to 40%

**Q.** And the activity at 20 µM [4]?
**A.** 0 to 20%

**Q.** For O=C(NO)c1ccc(Oc2ccc(C3C[C@@H]4CC[C@H]3C4)cc2)cc1 (stereo partly drawn) [Compound 184, 4-(4-((1S,4R)-bicyclo[2.2.1]heptan-2-yl)phenoxy)-N-hydroxybenzamide], which fold induction at 10 µM [2] is on record?
**A.** 1.3 to 1.4

**Q.** And the activity at 20 µM [3]?
**A.** 0 to 20%

**Q.** And the activity at 20 µM [4]?
**A.** 0 to 20%

**Q.** CCc1ccc(Oc2ccc(C(=O)NC)cc2)cc1 [Compound 190, 4-(4-ethylphenoxy)-N-methylbenzamide] was tested. Which activity at 10 µM [1] did it give?
**A.** 60 to 70%

**Q.** How did the fold induction at 10 µM [2] turn out when Cc1ccc(Oc2ccc(C(=O)NO)cn2)cc1 [Compound 266, N-hydroxy-6-(p-tolyloxy)nicotinamide] was run?
**A.** 1.4 to 1.7

**Q.** What about the activity at 20 µM [3] of the same molecule?
**A.** 40 to 60%

**Q.** What about the activity at 20 µM [4] of the same molecule?
**A.** 0 to 20%

**Q.** For CCc1ccc(Oc2ccc(C(=O)NO)cn2)cc1 [Compound 267, 6-(4-ethylphenoxy)-N-hydroxynicotinamide], which fold induction at 10 µM [2] is on record?
**A.** 1.1 to 1.2

**Q.** And the activity at 20 µM [3]?
**A.** 20 to 40%

**Q.** And the activity at 20 µM [4]?
**A.** 0 to 20%

**Q.** For CCCc1ccc(Oc2ccc(C(=O)NO)cn2)cc1 [Compound 268, N-hydroxy-6-(4-propylphenoxy)nicotinamide], which fold induction at 10 µM [2] is on record?
**A.** 1.3 to 1.4

**Q.** What about the activity at 20 µM [3] of the same molecule?
**A.** 0 to 20%

**Q.** What about the activity at 20 µM [4] of the same molecule?
**A.** 0 to 20%

**Q.** Which results are given for CCCCc1ccc(Oc2ccc(C(=O)NO)cn2)cc1 [Compound 269, 6-(4-butylphenoxy)-N-hydroxynicotinamide]?
**A.** fold induction at 10 µM [2]: 1.4 to 1.7; activity at 20 µM [3]: 0 to 20%; activity at 20 µM [4]: 0 to 20%

**Q.** O=C(NO)c1ccc(Oc2ccc(C(F)(F)F)cc2)nc1 [Compound 275, N-Hydroxy-6-(4-(trifluoromethyl)phenoxy)nicotinamide] was tested. Which fold induction at 10 µM [2] did it give?
**A.** 1.2 to 1.3

**Q.** What about the activity at 20 µM [3] of the same molecule?
**A.** 0 to 20%

**Q.** And the activity at 20 µM [4]?
**A.** 0 to 20%

**Q.** O=C(NO)c1ccc(Oc2ccc(C3C[C@@H]4CC[C@H]3C4)cc2)nc1 (stereo partly drawn) [Compound 286, 6-(4-((1S,4R)-bicyclo[2.2.1]heptan-2-yl)phenoxy)-N-hydroxynicotinamide] was tested. Which fold induction at 10 µM [2] did it give?
**A.** 1.3 to 1.4

**Q.** And the activity at 20 µM [3]?
**A.** 0 to 20%

**Q.** What about the activity at 20 µM [4] of the same molecule?
**A.** 0 to 20%

**Q.** How did the activity at 10 µM [1] turn out when CNC(=O)c1ccc(Oc2ccc(C3CC4CCC3CC4)cc2)nc1 (stereo not shown) [Compound 312, 6-(4-((1s,4s)-bicyclo[2.2.2]octan-2-yl)phenoxy)-N-methylnicotinamide] was run?
**A.** 70 to 80%

**Q.** For COC(=O)c1ccc(Oc2ccc(C34CC5CC(CC(C5)C3)C4)cc2)c(F)c1 [Compound 389, methyl 4-(4-((3r,5r,7r)-adamantan-1-yl)phenoxy)-3-fluorobenzoate], which activity at 10 µM [1] is on record?
**A.** 20 to 40%

**Q.** And the activity at 20 µM [4]?
**A.** 40 to 60%

**Q.** For CC(C)(C)c1ccc(Oc2ncc(C(=O)O)cc2F)cc1 [Compound 424, 6-(4-(tert-butyl)phenoxy)-5-fluoronicotinic acid], which activity at 10 µM [1] is on record?
**A.** 70 to 80%

**Q.** Which activity at 10 µM [1] does the source give for COC(=O)c1ccc(Oc2ccc(C3(C(F)(F)F)CC3)cc2Cl)nc1 [Compound 747, methyl 6-(2-chloro-4-(1-(trifluoromethyl)cyclopropyl)phenoxy)nicotinate] here?
**A.** 80 to 90%

**Q.** Which activity at 10 µM [1] does the source give for CCOC(=O)c1ccc(Oc2ccc(C3(C(F)(F)C(F)(F)F)CC3)cc2)nc1 [Compound 749, Ethyl 6-(4-(1-(perfluoroethyl)cyclopropyl)phenoxy)nicotinate] here?
**A.** 80 to 90%

**Q.** O=C(NO)c1ccc(Oc2ccc(C3(C(F)(F)C(F)(F)F)CC3)cc2)cc1 [Compound 767, N-hydroxy-4-(4-(1-(perfluoroethyl)cyclopropyl)phenoxy)benzamide] was tested. Which activity at 20 µM [3] did it give?
**A.** 0 to 20%

**Q.** And the activity at 20 µM [4]?
**A.** 0 to 20%

**Q.** What does the source list for O=C(NO)c1ccc(Oc2ccc(C3(C(F)(F)F)CC3)cc2Cl)cc1 [Compound 774, 4-(2-chloro-4-(1-(trifluoromethyl)cyclopropyl)phenoxy)-N-hydroxybenzamide]?
**A.** activity at 20 µM [3]: 70 to 80%; activity at 20 µM [4]: 0 to 20%

**Q.** How did the activity at 10 µM [1] turn out when NC(=O)c1ccc(Oc2ccc(C3(C(F)(F)F)CC3)cc2Cl)nc1 [Compound 801, 6-(2-chloro-4-(1-(trifluoromethyl)cyclopropyl)phenoxy)nicotinamide] was run?
**A.** 80 to 90%

**Q.** With O=C(NO)c1ccc(Oc2ccc(C3(C(F)(F)F)CC3)cc2)nc1 [Compound 802, N-hydroxy-6-(4-(1-(trifluoromethyl)cyclopropyl)phenoxy)nicotinamide] as the molecule, how does the activity at 20 µM [3] read?
**A.** 0 to 20%

**Q.** And the activity at 20 µM [4]?
**A.** 0 to 20%

**Q.** Which results are given for O=C(NO)c1ccc(Oc2ccc(C3(C(F)(F)C(F)(F)F)CC3)cc2)nc1 [Compound 803, N-hydroxy-6-(4-(1-(perfluoroethyl)cyclopropyl)phenoxy)nicotinamide]?
**A.** activity at 20 µM [3]: 0 to 20%; activity at 20 µM [4]: 0 to 20%

**Q.** For O=C(NO)c1cnc(Oc2ccc(C3(C(F)(F)F)CC3)cc2)c(F)c1 [Compound 804, 5-fluoro-N-hydroxy-6-(4-(1-(trifluoromethyl)cyclopropyl)phenoxy)nicotinamide], which activity at 20 µM [3] is on record?
**A.** 0 to 20%

**Q.** And the activity at 20 µM [4]?
**A.** 0 to 20%

**Q.** CN(C)C(=O)c1ccc(Oc2ccc(C3(C(F)(F)F)CC3)cc2)nc1 [Compound 820, N,N-Dimethyl-6-(4-(1-(trifluoromethyl)cyclopropyl)phenoxy)-nicotinamide] was tested. Which fold induction at 10 µM [2] did it give?
**A.** 1.4 to 1.7

**Q.** What about the activity at 20 µM [3] of the same molecule?
**A.** 80 to 90%

**Q.** What about the activity at 20 µM [4] of the same molecule?
**A.** 40 to 60%

**Q.** For CN(C)C(=O)c1cnc(Oc2ccc(C3(C(F)(F)F)CC3)cc2)c(F)c1 [Compound 822, 5-fluoro-N,N-dimethyl-6-(4-(1-(trifluoromethyl)cyclopropyl)phenoxy)nicotinamide], which activity at 20 µM [3] is on record?
**A.** 80 to 90%

**Q.** What about the activity at 20 µM [4] of the same molecule?
**A.** 70 to 80%
